Where two headings read alike, the source gives them in different places.
Key:
ColiTad1 = assay type: binding, Colidexitribacter sp. OB.20; settings: native gel combined with ITC
HgmTad2 [1] = assay type: binding, Bacteroides phages (human gut metagenomic libraries)
CmTad1 = CmTad1 (Clostridioides mangenotii, UniProt P0DW61); assay type: binding, Clostridioides mangenotii prophage; settings: for binding to CmTad1 in words: among the CDNs tested
SBS Tad1 [2] = target: T1, SBS Tad1 (Bacillus phage SBSphiJ7, UniProt P0DW57); experiment: biochemical; assay type: binding, Bacillus cereus phage SBSphiJ7
SPO1 Tad2 = SPO1 Tad2 (Bacillus phage SP01, UniProt B6V311); assay type: binding, Bacillus cereus phage SPO1; settings: HPLC; 40 μM protein, 4 μM ligand
HgmTad2 [3] = assay type: binding, Bacteroides phages (human gut metagenomic libraries); settings: HPLC; HgmTad2 of State 1; 40 μM protein, 4 μM ligand
SBS Tad1 [4] = target: T1, SBS Tad1; assay type: binding, Bacillus cereus phage SBSphiJ7; settings: native gel combined with ITC
[5] = native PAGE, HgmTad2 of State 1

T1 sequence (P0DW57 whole entry, looked up): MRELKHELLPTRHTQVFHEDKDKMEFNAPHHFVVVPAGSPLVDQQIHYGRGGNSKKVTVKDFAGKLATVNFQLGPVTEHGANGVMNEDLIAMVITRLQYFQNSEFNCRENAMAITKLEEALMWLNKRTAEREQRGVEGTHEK
Sequence of CmTad1 (P0DW61 whole entry): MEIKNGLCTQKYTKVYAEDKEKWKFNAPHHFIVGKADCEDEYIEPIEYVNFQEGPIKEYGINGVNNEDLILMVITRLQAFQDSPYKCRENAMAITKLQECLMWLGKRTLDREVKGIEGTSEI
Sequence of SPO1 Tad2 (B6V311 whole entry, looked up): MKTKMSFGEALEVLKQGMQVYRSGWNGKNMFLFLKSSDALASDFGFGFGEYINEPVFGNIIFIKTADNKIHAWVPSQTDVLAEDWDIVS

Compound: Nc1nc2c(ncn2[C@@H]2O[C@@H]3COP(=O)(O)O[C@H]4[C@@H](O)[C@H](n5cnc6c(N)ncnc65)O[C@@H]4COP(=O)(O)O[C@@H]2[C@@H]3O)c(=O)[nH]1 [2',3'-cGAMP]
- binding affinity to ColiTad1 in words (ColiTad1): high affinity

Compound: Nc1ncnc2c1ncn2[C@@H]1O[C@@H]2COP(=O)(O)OP(=O)(O)OC[C@H]3OC(O[C@@H]1[C@@H]2O)[C@H](O)[C@@H]3O [1''-2' gcADPR]
- native gel shift of HgmTad2 upon adding ligand (HgmTad2 [1]; native gel, purified HgmTad2 in all the three states): shift

Compound: Nc1ncnc2c1ncn2[C@@H]1O[C@@H]2COP(=O)(O)O[C@H]3[C@@H](O)[C@H](n4ccc(=O)[nH]c4=O)O[C@@H]3COP(=O)(O)O[C@H]2[C@H]1O [cUA]
- binding to CmTad1 in words (CmTad1): weak binding
- Kd (SBS Tad1 [2]): 0.0539 µM

Compound: Nc1nc2c(ncn2[C@@H]2O[C@@H]3COP(=O)(O)O[C@H]4[C@@H](O)[C@H](n5ccc(=O)[nH]c5=O)O[C@@H]4COP(=O)(O)O[C@H]3[C@H]2O)c(=O)[nH]1 [cUG]
- native gel shift of HgmTad2 upon adding ligand (HgmTad2 [1]; [5]): significant shift

Compound: Nc1nc2c(ncn2[C@@H]2O[C@@H]3COP(=O)(O)O[C@H]4[C@@H](O)[C@H](n5cnc6c(N)ncnc65)O[C@@H]4COP(=O)(O)O[C@H]4[C@@H](O)[C@H](n5cnc6c(N)ncnc65)O[C@@H]4COP(=O)(O)O[C@H]3[C@H]2O)c(=O)[nH]1 [cAAG]
- native gel shift of CmTad1 upon adding ligand (CmTad1; native PAGE, protein 20 μM): shift

Compound: Nc1nc2c(ncn2[C@@H]2O[C@@H]3COP(=O)(O)O[C@H]4[C@@H](O)[C@H](n5cnc6c(N)ncnc65)O[C@@H]4COP(=O)(O)O[C@H]3[C@H]2O)c(=O)[nH]1 [3',3'-cGAMP]
- depletion of ligand after incubation with SPO1 Tad2 (SPO1 Tad2): does not deplete
- binding affinity to ColiTad1 in words (ColiTad1): low affinity
- binding to CmTad1 in words (CmTad1): weak binding
- Kd (SBS Tad1 [2]): 0.0487 µM
- native gel shift of HgmTad2 upon adding ligand (HgmTad2 [1]; [5]): significant shift
- depletion of ligand after incubation with HgmTad2 (HgmTad2 [3]): depletes

Compound: Nc1nc2c(ncn2[C@@H]2O[C@@H]3COP(=O)(O)O[C@@H]4[C@H](O)[C@@H](COP(=O)(O)O[C@H]3[C@H]2O)O[C@H]4n2cnc3c(N)ncnc32)c(=O)[nH]1 [3',2'-cGAMP]
- binding affinity to SBS Tad1 in words (SBS Tad1 [4]): low affinity
- binding affinity to ColiTad1 in words (ColiTad1): low affinity

Compound: Nc1nc2c(ncn2[C@@H]2O[C@@H]3COP(=O)(O)O[C@H]4[C@@H](O)[C@H](n5cnc6c(=O)[nH]c(N)nc65)O[C@@H]4COP(=O)(O)O[C@H]3[C@H]2O)c(=O)[nH]1 [cGG, 3’,3’-cyclic di-GMP]
- native gel shift of HgmTad2 upon adding ligand (HgmTad2 [1]; [5]): significant shift
